The structures appear in SMILES notation.

For data set [1], the system named is human males with type II or III Vertex alopecia. Briefly: Terminal hair counts 3 months after single topical PDT treatment, compared to baseline. Type of data set: in vivo. The following applies: 3 months after treatment vs baseline, 5 subjects. The text has this: As used herein, the term “hair growth” refers to an increase in number of terminal hairs present. Terminal hair counts can be conducted in a number of ways. For example, the terminal hair can be counted by trained and validated technicians who perform a computer-assisted count on macrophotographs. In brief, a target area on the scalp is chosen, the hair clipped and the scalp permanently marked with a single dot tattoo in the center in order to facilitate the exact positioning at each subsequent photo session. The macrophotography is performed using a preset camera with a macro lens and a stand that provides a constant reproduction ratio and electronic flashes that reproducibly illuminate the area to photograph. The images are taken in triplicate, centering the camera using the tattoo and the color slide films are processed at a central facility. The quality of the images is assessed and large transparencies are made of the best images. The terminal hairs on the target circle of the transparencies are then counted by the trained technicians.
A total of 10 subjects were treated. All subjects were human males over 18 years of age and had type II or III Vertex alopecia, rated according to the modified Hamilton-Norwood scale. […]
The efficacy was assessed by hair counts 3 months after the treatment and compared to baseline counts.

A short description of data set [2]: Safety: monitoring all adverse events during and after the PDT treatment. Type of data set: in vivo, human. The following applies: single topical QLT0074 ointment 0.2% w/w plus 50 or 75 J/cm^2 red light; 10 subjects. On the procedure:
A total of 10 subjects were treated. All subjects were human males over 18 years of age and had type II or III Vertex alopecia, rated according to the modified Hamilton-Norwood scale.
All subjects received a single application of topical QLT0074 ointment 0.2% weight in weight (w/w) to two of three circular test sites on the vertex area of the scalp. The amount of ointment applied to each test site was approximately 224 mg (about 0.44mg of photosensitizer per test site). After 2 hours the excess drug was removed and red light (LED's—690nm) was administered to two of the three sites. The other test site served as a control with no drug or light administration.
Two light dose cohorts (50 and 75 J/cm^2) were investigated with each cohort having 5 subjects.
Safety was assessed by monitoring all adverse events during and after the treatment.

The conditions of data set [3]: topical 0.5% hematoporphyrin and UVA three times a week for eight weeks; first week of treatment; cited from earlier work.
Data set [4] relates to alopecia areata. The settings on record: cited from earlier work.

Take `C=Cc1c(C)c2cc3nc(cc4[nH]c(cc5nc(cc1[nH]2)C(C)=C5CCC(=O)OCCO)c(CCC(=O)OCCO)c4C)[C@@]1(C)C3=CC=C(C(=O)OC)[C@H]1C(=O)OC` [QLT0074]: the “% change in terminal hair count” value in data set [1] (50 J/cm^2 red light (690nm) 2 hours after topical QLT0074 ointment 0.2% w/w) was “+8%”; in data set [1] (75 J/cm^2 red light (690nm) 2 hours after topical QLT0074 ointment 0.2% w/w) it was “+4%”. Besides, the serious adverse events result in data set [2] is reported as “No serious adverse events were reported”.

With `CC1=C(CCC(=O)O)c2cc3[nH]c(cc4nc(cc5[nH]c(cc1n2)c(C)c5C(C)O)C(C)=C4C(C)O)c(C)c3CCC(=O)O` (stereo not drawn) [hematoporphyrin], the “skin reactions at treated sites” value in data set [3] is “significant erythema and mild scaling followed by hyperpigmentation”.

With `COc1c2occc2c(OC)c2c(=O)cc(C)oc12` [khellin], the patients treated successfully in data set [4] (2% khellin and UVA, alopecia areata) was 5 of the 10. Further, the phototoxicity entry in data set [4] (khellin and UVA) is given as “did not cause phototoxicity”.

(Values after patent publication US20060265028A1, “Hair growth” (QLT INC., priority 2003, published 2006).)
